In patent US5449680A, “2,2 disubstituted glycerol and glycerol-like compounds, compositions and methods of use” (Schering Corporation, priority 1992, dated 1995):

system: PAF-induced platelet aggregation; test: PAF-induced platelet aggregation in human platelet-rich plasma (PRP), in vitro PAF antagonism assay; assay type: cell-based; settings: Dose 5 μM, 37° C, 2 min preincubation, PAF 1-5×10^-8 M, read-out: Percent Inhibition
Description: These test procedures are standard tests used to determine PAF antagonistic activity and to evaluate the usefulness of said compounds for counteracting the biological effects of PAF. The in vitro assay is a simple screening test, while the in vivo test mimics clinical use of the compounds described herein.
Preparation of platelet-rich plasma (PRP): Human blood (50 ml) was collected from healthy male donors in an anticoagulant solution (5 ml) containing sodium citrate (3.8%) and dextrose (2%). Blood was centrifuged at 110× g for 15 min. and the supernatant (PRP) carefully transferred into a polypropylene tube. Platelet-poor-plasma (PPP) was prepared by centrifuging PRP at 12,000× g for 2 min. (Beckman Microfuge B). PRP was used within 3 hours of drawing the blood.
Platelet Aggregation Assay: When an aggregating agent such as PAF is added to PRP, platelets aggregate. An aggregometer quantifies this aggregation by measuring light transmission through PRP and comparing to PPP. The aggregation assays were performed using a dual channel aggregometer (Model 440, Chrono-Log Corp., Havertown, Penn.). PRP (0.45 ml)in aggregometer cuvettes was continually stirred (37° C). Solutions of test compounds or vehicle were added to the PRP, and after incubation for 2 min., 10-15 […] aliquots of PAF solution were added so as to achieve a final concentration of 1-5×10^-8 M. Incubations were continued until the increase in light transmission reached a maximum (usually 2 min). Values for inhibition were calculated by comparing maximal aggregation obtained in the absence and the presence of the compound. For each experiment, a standard PAF antagonist such as alprazolam was used as a positive internal control. The inhibitory concentration (IC50)is the concentration of compound in micromoles at which 50% of the aggregation is inhibited, as measured by the light transmission through each sample of PRP as compared to PPP.

SMILES | inhibition at 5 µM
CCCCCCCCCCCCCCCCCCN(C)C(=O)OCC(C)(COP(=O)([O-])OCC[n+]1ccsc1)OC (centres unmarked) | 50%

same assay, conditions: Dose 10 μM, 37° C, 2 min preincubation, PAF 1-5×10^-8 M, read-out: Percent Inhibition

SMILES | inhibition at 10 µM
CCCCCCCCCCCCCCCCCCN(C)C(=O)OCC(C)(COCCCC[n+]1ccsc1)OC (centres unmarked) | 100%
CCCCCCCCCCCCCCCCCCN(C)C(=O)OCC(C)(COC(=O)N(CC[n+]1ccccc1)C(C)=O)OC (centres unmarked) | 100%
CCCCCCCCCCCCCCCCCCN(C)C(=O)OCC(C)(COCCCCCCC[N+]1(C)CCSC1)OC (centres unmarked) | 93%
CCCCCCCCCCCCCCCCCCN(C)C(=O)OCC(C)(COCCCCCCCn1cc[n+](C)c1)OC (centres unmarked) | 93%
CCCCCCCCCCCCCCCCCCNC(=O)OCC(C)(COP(=O)([O-])OCC[n+]1ccsc1)OC (centres unmarked) | 50%

same assay, conditions: Dose 50 μM, 37° C, 2 min preincubation, PAF 1-5×10^-8 M, read-out: Percent Inhibition

SMILES | inhibition at 50 µM
CCCCCCCCCCCCCCCCCCN(C)C(=O)OCC(C)(CNC(=O)OCC[n+]1ccccc1)OC (centres unmarked) | 100%
CCCCCCCCCCCCCCCCCCN(C)C(=O)OCC(C)(COP(=O)([O-])OCC[n+]1ccccc1)OC (centres unmarked) | 43%
CCCCCCCCCCCCCCCCCCN(C)C(=O)OCC(C)(COCCCCCCCn1cnc(CC(=O)O)c1)OC (centres unmarked) | 19%
COC(C)(COCCCCCCCN1CCSC1=N)COC(=O)Nc1ccc(F)cc1F (centres unmarked) | 91%
CCCCCCCCCCCCCCCCOCC(C)(COC(=O)NCC[n+]1ccsc1)OC (centres unmarked) | 44%
CCCCCCCCCCCCCCCCCCN(C)C(=O)OCC(C)(COCCCCCCCN1CCSC1)OC (centres unmarked) | 10%
CCCCCCCCCCCCCCCCCCN(C)C(=O)OCC(CC)(COP(=O)([O-])OCC[n+]1ccsc1)OC (centres unmarked) | 100%
CCCCCCCCCCCCCCCCCCN(C)C(=O)OCC(C)(COCCCCCCCOC(=O)C1CSCN1)OC (centres unmarked) | 3%
CCCCCCCCCCCCCCCCCCN(C)C(=O)OCC(C)(COCCCCCCC[n+]1ccsc1)S(C)(=O)=O (centres unmarked) | 100%
CCCCCCCCCCCCCCCCCCN(C)C(=O)OCC(C)(CNS(=O)(=O)CCn1ccnc1)OC (centres unmarked) | 12%
CCCCCCCCCCCCCCCCCCN(C)C(=O)OCC(C)(CNC(=O)OCC[N+](C)(C)C)OC (centres unmarked) | 83%
CCCCCCCCCCCCCCCCCCN(C)C(=O)OCC(C)(COCCCCCCC[n+]1ccsc1)SC (centres unmarked) | 100%
CCCCCCCCCCCCCCCCOCC(C)(COC(=O)OCC[n+]1ccccc1)OC (centres unmarked) | 68%
CCCCCCCCCCCCCCCCOCC(C)(COC(=O)OCC[N+]1(C)CCCC1)OC (centres unmarked) | 32%
CCCCCCCCCCCCCCCCCCN(C)C(=O)OCC(COP(=O)([O-])OCC[n+]1ccsc1)(OC)C(C)C (centres unmarked) | 100%
CCCCCCCCCCCCCCCCCCN(C)C(=O)OCC(C)(COCCCCCCCOC(=O)C(N)CSC)OC (centres unmarked) | 28%
CCCCCCCCCCCCCCCCCCN(C)C(=O)OCC(C)(COCCCCCCC[n+]1ccsc1)OC (centres unmarked) | 100%
CCCCCCCCCCCCCCCCCCN(C)C(=O)OCC(C)(COCCCCCCCn1ccnc1N)OC (centres unmarked) | 17%
CCCCCCCCCCCCCCCCCCN(C)C(=O)OCC(C)(CC)COCCCCCCC[n+]1ccsc1 (centres unmarked) | 100%
CC(COCc1ccc(CN2CCSC2=N)cc1)(COC(=O)Nc1ccccc1)S(C)(=O)=O (centres unmarked) | 90%
CCCCCCCCCCCCCCCCCCN(C)C(=O)OCC(C)(COCc1ccc(C[n+]2ccsc2)cc1)OC (centres unmarked) | 100%
CCCCCCCCCCCCCCCCCCN(C)C(=O)OCC(C)(COC(=O)NCC[N+](C)(C)C)OC (centres unmarked) | 67%
CCCCCCCCCCCCCCCCCCN(C)C(=O)OCC(C)(COCCCCCCCn1cnc(CC(=O)OCc2ccccc2)c1)OC (centres unmarked) | 19%
CCCCCCCCCCCCCCCCCCN(C)C(=O)OCC(C)(COC(=O)NCCCCC[n+]1ccsc1)OC (centres unmarked) | 100%
CCCCCCCCCCCCCCCCCCN(C)C(=O)OCC(C)(COC(=O)NCC[n+]1ccsc1)OC (centres unmarked) | 97%
COC(C)(COCCCCCCC[n+]1ccsc1)COC(=O)Nc1ccccc1 (centres unmarked) | 100%
CCCCCCCCCCCCCCCCCCN(C)C(=O)OCC(C)(COCCCCCCC[n+]1ccsc1)[S+](C)[O-] (centres unmarked) | 100%
CCCCCCCCCCCCCCCCCCN(C)C(=O)OCC(CC)(COP(=O)(O)OCCn1ccnc1)OC (centres unmarked) | 23%

same assay, conditions: Dose 100 μM, 37° C, 2 min preincubation, PAF 1-5×10^-8 M, read-out: Percent Inhibition

SMILES | inhibition at 100 µM
CCCCCCCCCCCCCCCCOCC(C)(COC(=O)OCC[N+](C)(C)C)OC (centres unmarked) | 100%
